Structures are written as SMILES. The source made the active and inactive calls. No cut-off for these calls is given here.

Drawing on ChEMBL document CHEMBL5523738, “Lipid Trolling to Optimize A3 Adenosine Receptor-Positive Allosteric Modulators (PAMs)” (J Med Chem, 2024), this text covers Activity and fold change (FC) for 29 molecules.

Assay [1] deals with T1, Adenosine receptor A3 (Homo sapiens) (UniProt P0DMS8).
T1 sequence (whole entry): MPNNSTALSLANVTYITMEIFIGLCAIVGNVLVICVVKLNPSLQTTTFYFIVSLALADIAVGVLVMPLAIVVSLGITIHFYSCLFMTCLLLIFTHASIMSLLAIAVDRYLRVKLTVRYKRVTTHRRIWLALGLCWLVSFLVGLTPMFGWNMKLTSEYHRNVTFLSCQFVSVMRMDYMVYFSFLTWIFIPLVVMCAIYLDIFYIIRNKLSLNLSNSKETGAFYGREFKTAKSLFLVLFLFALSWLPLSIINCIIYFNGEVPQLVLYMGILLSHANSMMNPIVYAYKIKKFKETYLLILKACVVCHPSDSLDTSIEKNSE
The assay can be described thus: Positive allosteric modulation of human A3 adenosine receptor transfected in HEK293 cell membranes assessed as slow down of [125I]I-AB-MECA dissociation rate at 10 uM preincubated with radioligand for 3 hrs followed by NECA and compound addition and measured after 60 mins by gamma counter method. As to conditions: Membrane, filed as positive allosteric modulator.

Assay [2] addresses T1, Adenosine receptor A3 (Homo sapiens). The assay can be described thus: Antagonist activity at human A3 adenosine receptor transfected in HEK293 cell membranes assessed as rightward shift in 5-(2-chloro-6-((3-iodobenzyl)amino)-9H-purin-9-yl)-3,4-dihydroxy-N-methyltetrahydrofuran-2-carboxamide activation curve at 10 uM pretreated for 1 hr followed by agonist addition and measured after 2 hrs by liquid scintillation counting method. The format is functional. As to conditions: Membrane, time 3.0 hrs.

Assay [3] shares this target. The assay can be described thus: Orthosteric antagonist activity at human A3 adenosine receptor transfected in HEK293 cell membranes assessed as inhibition of [125I]I-AB-MECA binding at equilibrium at 10 uM measured for 18 hrs by gamma counter method. As to conditions: Membrane, filed as antagonist.
Assay [4] has the same target. The assay can be described thus: Antagonist activity at human A3 adenosine receptor transfected in HEK293 cell membranes assessed as rightward shift in 5-(2-chloro-6-((3-iodobenzyl)amino)-9H-purin-9-yl)-3,4-dihydroxy-N-methyltetrahydrofuran-2-carboxamide activation curve pretreated for 1 hr followed by agonist addition and measured after 2 hrs by liquid scintillation counting method. In kind it is functional. As to conditions: Membrane, filed as antagonist, time 3.0 hrs.

Assay [5] addresses T2, Adenosine receptor A3 (Mus musculus) (UniProt Q61618).
T2 sequence (whole entry): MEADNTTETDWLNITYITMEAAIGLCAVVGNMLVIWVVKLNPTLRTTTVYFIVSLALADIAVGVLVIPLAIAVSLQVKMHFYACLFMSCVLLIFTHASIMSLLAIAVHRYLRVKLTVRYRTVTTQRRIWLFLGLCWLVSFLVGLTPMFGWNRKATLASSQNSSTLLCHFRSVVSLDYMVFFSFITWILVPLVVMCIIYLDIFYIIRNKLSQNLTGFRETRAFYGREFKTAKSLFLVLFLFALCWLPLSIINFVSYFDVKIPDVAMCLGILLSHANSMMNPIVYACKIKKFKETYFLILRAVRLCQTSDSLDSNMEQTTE
The assay can be described thus: Positive allosteric modulation of full length mouse A3 adenosine receptor transfected in HEK293 cell membranes assessed as slow down of [125I]I-AB-MECA dissociation rate at 10 uM preincubated with radioligand for 3 hrs followed by NECA and compound addition and measured upto 180 mins by gamma counter method. As to conditions: Membrane, filed as positive allosteric modulator.

Assay [6] deals with T2, Adenosine receptor A3 (Mus musculus). As to the kind of experiment: Orthosteric antagonist activity at full length mouse A3 adenosine receptor transfected in HEK293 cell membranes assessed as inhibition of [125I]I-AB-MECA binding at equilibrium at 10 uM by gamma counter method. As to conditions: Membrane, filed as antagonist.
The target of assay [7] is 5-hydroxytryptamine receptor 1E (Homo sapiens) (UniProt P28566). The assay can be described thus: Binding affinity to 5-HT1E (unknown origin).
For assay [8], the target named is Mu-type opioid receptor (Homo sapiens) (UniProt P35372). The assay can be described thus: Binding affinity to MOR (unknown origin).
Assay [9] addresses Alpha-1A adrenergic receptor (Homo sapiens) (UniProt P35348). As to the kind of experiment: Binding affinity to alpha1A adrenergic receptor (unknown origin).
Assay [10] deals with T1, Adenosine receptor A3 (Homo sapiens). The assay can be described thus: Positive allosteric modulation of human A3 adenosine receptor transfected in HEK293 cell membranes assessed as potentiation of 5-(2-chloro-6-((3-iodobenzyl)amino)-9H-purin-9-yl)-3,4-dihydroxy-N-methyltetrahydrofuran-2-carboxamide induced [35S]GTP-gammaS binding by measuring fold increase in agonist …. As to conditions: Membrane, filed as positive allosteric modulator, dose 1.0 µM, time 3.0 hrs. For orientation: Binding of GTPγS marks nucleotide exchange on a G protein.

Assay [11] deals with Kappa-type opioid receptor (Homo sapiens) (UniProt P41145). As to the kind of experiment: Binding affinity to KOR (unknown origin).
Kappa-type opioid receptor (Homo sapiens), sequence (P41145 whole entry): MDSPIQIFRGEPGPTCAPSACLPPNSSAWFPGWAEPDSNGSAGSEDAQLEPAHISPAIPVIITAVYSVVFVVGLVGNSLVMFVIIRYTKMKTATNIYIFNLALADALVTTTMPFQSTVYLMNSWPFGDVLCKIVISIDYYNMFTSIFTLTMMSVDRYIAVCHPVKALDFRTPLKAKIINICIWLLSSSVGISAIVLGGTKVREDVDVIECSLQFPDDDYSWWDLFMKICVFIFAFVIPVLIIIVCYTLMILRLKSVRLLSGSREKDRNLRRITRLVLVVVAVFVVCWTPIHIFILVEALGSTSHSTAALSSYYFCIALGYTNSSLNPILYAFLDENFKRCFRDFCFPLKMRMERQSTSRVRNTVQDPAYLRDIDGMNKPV
Assay [12] has as its target Muscarinic acetylcholine receptor M2 (Homo sapiens) (UniProt P08172). The assay can be described thus: Binding affinity to M2 receptor (unknown origin).
Assay [13] deals with GABA-A receptor; anion channel (Homo sapiens) (UniProt P14867+P47870+P18507+P28472+P48169+Q99928+Q9UN88+P34903+O00591+O14764+Q8N1C3+P18505+P78334+P47869+P31644+Q16445). The assay can be described thus: Binding affinity to GABA-A receptor (unknown origin). The format is protein-complex assay.
Assay [14] concerns the target D(2) dopamine receptor (Homo sapiens) (UniProt P14416). The assay can be described thus: Binding affinity to D2 receptor (unknown origin).
The target of assay [15] is Alpha-1D adrenergic receptor (Homo sapiens) (UniProt P25100). The assay can be described thus: Binding affinity to alpha1D adrenergic receptor (unknown origin).
Alpha-1D adrenergic receptor (Homo sapiens), sequence (P25100 whole entry): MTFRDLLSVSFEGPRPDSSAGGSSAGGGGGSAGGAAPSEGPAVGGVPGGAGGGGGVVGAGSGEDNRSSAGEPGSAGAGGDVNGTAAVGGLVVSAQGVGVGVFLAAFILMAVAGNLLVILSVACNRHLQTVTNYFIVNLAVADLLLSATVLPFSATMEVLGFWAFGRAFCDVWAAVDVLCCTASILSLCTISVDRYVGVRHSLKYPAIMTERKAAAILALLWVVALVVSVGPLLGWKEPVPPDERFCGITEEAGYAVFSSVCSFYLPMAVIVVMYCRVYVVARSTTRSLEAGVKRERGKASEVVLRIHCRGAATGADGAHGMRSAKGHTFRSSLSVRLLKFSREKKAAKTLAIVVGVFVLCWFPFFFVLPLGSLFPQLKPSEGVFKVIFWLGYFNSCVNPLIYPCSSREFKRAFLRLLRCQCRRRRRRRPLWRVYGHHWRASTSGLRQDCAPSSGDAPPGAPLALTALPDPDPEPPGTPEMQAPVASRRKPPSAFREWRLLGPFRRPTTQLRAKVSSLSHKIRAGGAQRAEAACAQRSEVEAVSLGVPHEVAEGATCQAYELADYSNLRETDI
Assay [16] has as its target D(1A) dopamine receptor (Homo sapiens) (UniProt P21728). The assay can be described thus: Binding affinity to D1 receptor (unknown origin).
Assay [17] addresses Muscarinic acetylcholine receptor M1 (Homo sapiens) (UniProt P11229). As to the kind of experiment: Binding affinity to M1 receptor (unknown origin).
The species entered for assay [18] is Homo sapiens. As to the kind of experiment: Binding affinity to BZP receptor (unknown origin).
Assay [19] addresses Muscarinic acetylcholine receptor M4 (Homo sapiens) (UniProt P08173). The assay can be described thus: Binding affinity to M4 receptor (unknown origin).
Assay [20] addresses 5-hydroxytryptamine receptor 5A (Homo sapiens) (UniProt P47898). The assay can be described thus: Binding affinity to 5-HT5A (unknown origin).
For assay [21], the target named is Beta-2 adrenergic receptor (Homo sapiens) (UniProt P07550). The assay can be described thus: Binding affinity to beta2 adrenergic receptor (unknown origin).
Beta-2 adrenergic receptor (Homo sapiens), sequence (P07550 whole entry, looked up): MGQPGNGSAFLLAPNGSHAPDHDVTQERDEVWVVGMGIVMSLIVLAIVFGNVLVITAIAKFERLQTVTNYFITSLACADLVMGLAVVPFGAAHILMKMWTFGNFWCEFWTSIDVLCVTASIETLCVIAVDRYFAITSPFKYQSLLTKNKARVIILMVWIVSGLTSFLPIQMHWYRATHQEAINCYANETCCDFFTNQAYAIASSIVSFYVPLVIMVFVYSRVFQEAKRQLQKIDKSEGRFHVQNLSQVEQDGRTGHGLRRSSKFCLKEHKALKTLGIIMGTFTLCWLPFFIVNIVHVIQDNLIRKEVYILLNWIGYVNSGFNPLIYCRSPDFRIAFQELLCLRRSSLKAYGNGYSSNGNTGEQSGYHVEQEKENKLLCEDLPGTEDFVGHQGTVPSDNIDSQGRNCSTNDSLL
The target in assay [22] is Beta-3 adrenergic receptor (Homo sapiens) (UniProt P13945). As to the kind of experiment: Binding affinity to beta3 adrenergic receptor (unknown origin).
Assay [23] has as its target 5-hydroxytryptamine receptor 3A (Homo sapiens) (UniProt P46098). As to the kind of experiment: Binding affinity to 5-HT3 (unknown origin).
Assay [24] deals with Delta-type opioid receptor (Homo sapiens) (UniProt P41143). The assay can be described thus: Binding affinity to DOR (unknown origin).
Delta-type opioid receptor (Homo sapiens), sequence (P41143 whole entry): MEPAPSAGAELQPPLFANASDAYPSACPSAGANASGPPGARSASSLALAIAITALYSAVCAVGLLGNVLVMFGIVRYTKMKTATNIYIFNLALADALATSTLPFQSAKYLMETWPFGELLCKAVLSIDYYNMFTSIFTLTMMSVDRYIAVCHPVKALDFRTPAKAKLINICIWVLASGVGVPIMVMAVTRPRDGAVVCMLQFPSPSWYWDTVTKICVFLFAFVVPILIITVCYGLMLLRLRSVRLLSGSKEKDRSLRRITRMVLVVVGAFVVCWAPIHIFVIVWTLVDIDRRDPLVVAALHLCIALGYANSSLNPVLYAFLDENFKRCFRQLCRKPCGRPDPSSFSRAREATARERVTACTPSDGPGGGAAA
In assay [25] the target is Histamine H2 receptor (Homo sapiens) (UniProt P25021). As to the kind of experiment: Binding affinity to histamine H2 receptor (unknown origin).
Histamine H2 receptor (Homo sapiens), sequence (P25021 whole entry): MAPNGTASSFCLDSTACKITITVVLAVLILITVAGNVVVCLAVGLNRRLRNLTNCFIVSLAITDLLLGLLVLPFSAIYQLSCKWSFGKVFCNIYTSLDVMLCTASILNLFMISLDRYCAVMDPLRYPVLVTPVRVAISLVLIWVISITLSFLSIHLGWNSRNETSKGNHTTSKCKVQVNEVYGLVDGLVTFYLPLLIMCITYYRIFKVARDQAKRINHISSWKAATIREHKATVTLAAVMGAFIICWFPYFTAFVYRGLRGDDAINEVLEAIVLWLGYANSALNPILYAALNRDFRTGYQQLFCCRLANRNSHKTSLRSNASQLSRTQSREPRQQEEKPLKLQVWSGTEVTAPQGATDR

5-hydroxytryptamine receptor 3A (Homo sapiens), sequence (P46098 whole entry): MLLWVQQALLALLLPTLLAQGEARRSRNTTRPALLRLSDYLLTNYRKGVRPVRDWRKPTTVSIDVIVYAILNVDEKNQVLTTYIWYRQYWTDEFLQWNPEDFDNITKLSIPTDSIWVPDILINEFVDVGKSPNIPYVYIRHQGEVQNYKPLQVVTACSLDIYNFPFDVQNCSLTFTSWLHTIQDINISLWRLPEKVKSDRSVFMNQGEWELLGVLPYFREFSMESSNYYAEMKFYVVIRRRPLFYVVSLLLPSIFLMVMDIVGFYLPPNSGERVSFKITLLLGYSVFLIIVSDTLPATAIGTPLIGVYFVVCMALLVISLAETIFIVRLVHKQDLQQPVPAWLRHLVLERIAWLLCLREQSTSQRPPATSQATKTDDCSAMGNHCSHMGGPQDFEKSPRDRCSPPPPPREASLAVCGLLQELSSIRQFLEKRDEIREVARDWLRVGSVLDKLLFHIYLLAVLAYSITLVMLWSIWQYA
Muscarinic acetylcholine receptor M1 (Homo sapiens), sequence (P11229 whole entry): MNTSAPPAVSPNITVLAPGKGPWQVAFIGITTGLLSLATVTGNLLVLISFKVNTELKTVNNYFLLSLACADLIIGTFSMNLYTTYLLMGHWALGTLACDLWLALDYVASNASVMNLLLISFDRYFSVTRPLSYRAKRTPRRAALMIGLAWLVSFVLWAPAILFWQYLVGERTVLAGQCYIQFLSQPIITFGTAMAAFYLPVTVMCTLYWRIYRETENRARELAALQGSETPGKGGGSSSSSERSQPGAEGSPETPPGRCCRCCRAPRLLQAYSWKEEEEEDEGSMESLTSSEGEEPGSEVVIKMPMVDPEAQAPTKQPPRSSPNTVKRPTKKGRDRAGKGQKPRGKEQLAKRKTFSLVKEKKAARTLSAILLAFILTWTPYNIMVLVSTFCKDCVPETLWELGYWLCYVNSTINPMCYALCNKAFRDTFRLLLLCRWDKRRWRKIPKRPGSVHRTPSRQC
Muscarinic acetylcholine receptor M2 (Homo sapiens), sequence (P08172 whole entry): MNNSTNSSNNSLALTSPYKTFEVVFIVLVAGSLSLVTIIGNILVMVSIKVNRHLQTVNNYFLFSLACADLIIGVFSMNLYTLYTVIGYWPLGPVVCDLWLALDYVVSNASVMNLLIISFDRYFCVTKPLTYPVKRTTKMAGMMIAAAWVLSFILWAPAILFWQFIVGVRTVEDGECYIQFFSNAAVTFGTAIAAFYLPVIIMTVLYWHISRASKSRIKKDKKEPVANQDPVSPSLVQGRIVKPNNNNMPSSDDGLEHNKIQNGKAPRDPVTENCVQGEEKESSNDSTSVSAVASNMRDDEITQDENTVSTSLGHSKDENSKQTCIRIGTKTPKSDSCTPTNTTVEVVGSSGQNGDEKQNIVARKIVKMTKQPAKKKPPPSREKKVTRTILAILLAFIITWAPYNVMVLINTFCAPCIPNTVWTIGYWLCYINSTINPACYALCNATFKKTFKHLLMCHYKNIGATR
5-hydroxytryptamine receptor 5A (Homo sapiens), sequence (P47898 whole entry): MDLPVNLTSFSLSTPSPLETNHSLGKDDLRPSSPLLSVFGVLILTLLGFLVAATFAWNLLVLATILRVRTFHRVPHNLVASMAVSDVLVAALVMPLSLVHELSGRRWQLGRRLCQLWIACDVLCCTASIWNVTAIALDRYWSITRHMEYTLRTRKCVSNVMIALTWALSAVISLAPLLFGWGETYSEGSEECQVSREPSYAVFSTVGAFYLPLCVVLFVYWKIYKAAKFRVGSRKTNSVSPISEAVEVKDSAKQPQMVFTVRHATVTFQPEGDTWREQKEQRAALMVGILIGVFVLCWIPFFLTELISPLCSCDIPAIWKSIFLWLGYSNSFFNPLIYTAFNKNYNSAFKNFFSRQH
D(2) dopamine receptor (Homo sapiens), sequence (P14416 whole entry): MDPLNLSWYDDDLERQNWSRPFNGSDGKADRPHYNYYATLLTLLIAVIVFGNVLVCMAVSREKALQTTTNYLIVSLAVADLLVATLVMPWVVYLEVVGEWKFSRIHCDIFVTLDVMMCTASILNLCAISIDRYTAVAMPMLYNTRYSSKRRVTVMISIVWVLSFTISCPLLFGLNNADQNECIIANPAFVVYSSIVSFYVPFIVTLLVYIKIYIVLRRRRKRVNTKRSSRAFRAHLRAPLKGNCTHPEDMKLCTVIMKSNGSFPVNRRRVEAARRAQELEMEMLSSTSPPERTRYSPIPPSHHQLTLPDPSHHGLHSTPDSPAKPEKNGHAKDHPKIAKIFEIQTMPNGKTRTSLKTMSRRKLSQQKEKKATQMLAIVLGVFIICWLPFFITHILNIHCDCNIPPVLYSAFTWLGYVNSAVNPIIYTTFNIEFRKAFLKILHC
D(1A) dopamine receptor (Homo sapiens), sequence (P21728 whole entry): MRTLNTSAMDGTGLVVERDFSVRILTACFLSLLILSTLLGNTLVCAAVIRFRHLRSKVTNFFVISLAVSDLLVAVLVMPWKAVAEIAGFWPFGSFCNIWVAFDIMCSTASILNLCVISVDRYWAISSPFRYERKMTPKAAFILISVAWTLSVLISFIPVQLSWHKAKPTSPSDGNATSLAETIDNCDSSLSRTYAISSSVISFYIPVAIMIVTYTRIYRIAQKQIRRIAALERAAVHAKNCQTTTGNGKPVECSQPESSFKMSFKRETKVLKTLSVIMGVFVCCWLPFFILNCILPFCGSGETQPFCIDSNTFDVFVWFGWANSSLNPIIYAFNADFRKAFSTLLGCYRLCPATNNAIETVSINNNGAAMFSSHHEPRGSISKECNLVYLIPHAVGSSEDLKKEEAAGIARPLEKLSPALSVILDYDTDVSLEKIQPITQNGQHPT

In the case of `CN(c1ccc(Cl)c(Cl)c1)c1nc2ccccc2c2[nH]c(C3CCCCC3)nc12`, the result in [1] was Active.

As to `Clc1ccc(Nc2nc3ccccc3c3sc(C4CCCCC4)nc23)cc1Cl`, the result in [2] was inactive.

Regarding `Clc1ccc(Nc2nc3ccccc3c3nc(C4CCCCC4)oc23)cc1Cl`, the outcome in assay [3] and in [4] was Active.

With `CCCC(CCC)c1nc2c(Nc3ccc(C#CCCN)cc3)nc3ccccc3c2[nH]1`, the result in [5] was Active.

`CCCC(CCC)c1nc2c(Nc3ccc(C#CCCCCCCCCCN)cc3)nc3ccccc3c2[nH]1`: the result in [6] and in [5] was Active. For the same molecule, the result in assay [7], in assay [8], in [9], in [11], in assay [12] and in assay [13] was inactive. For the same molecule, the outcome in assay [14], in assay [15], in assay [16], in [17], in [18] and in assay [19] was inactive. Further, the outcome in assay [20], in [21], in assay [22], in [23], in assay [24] and in assay [25] was inactive. In assay [10], the fold change (FC) is 4.

On to `CCCC(CCC)c1nc2c(Nc3ccc(C#CCCCCCCCN)cc3)nc3ccccc3c2[nH]1`, for which the outcome in assay [6] and in assay [5] was Active. In addition, the fold change (FC) in assay [10] came to 7.4.

As to `CCCC(CCC)c1nc2c(Nc3ccc(C#CCCCCCCN)cc3)nc3ccccc3c2[nH]1`, the outcome in assay [6] and in [5] was Active.

Regarding `CCCC(CCC)c1nc2c([nH]1)c(Nc1ccc(C#CCCCCCCCCCCN)cc1)nc1ccccc12`, the result in [6] and in [5] was Active. For the same molecule, the fold change (FC) in assay [10] came out at 2.5.

Turning to `CCCC(CCC)c1nc2c(Oc3ccc(Cl)c(Cl)c3)nc3ccccc3c2[nH]1`, the outcome in [3] and in assay [1] was Active.

With `CCCC(CCC)c1nc2c(Nc3cccc(C#CCCCCCCCCN)c3)nc3ccccc3c2[nH]1`, the outcome in assay [5] was Active.

For the molecule `CCCC(CCC)c1nc2c(Nc3ccc(I)cc3)nc3ccccc3c2[nH]1`, the result in [5] was Active.

`CCCC(CCC)c1nc2c(Nc3ccc(C#CCCCCCCCCN(C)C)cc3)nc3ccccc3c2[nH]1`: in assay [10], the fold change (FC) turned out to be 4.

For the molecule `CCCC(CCC)c1nc2c(Sc3ccc(Cl)c(Cl)c3)nc3ccccc3c2[nH]1`, the outcome in assay [3] and in assay [1] was Active.

With `CCCC(CCC)c1nc2c(Nc3ccc(C#CCCCCCCCCNCCCCN)cc3)nc3ccccc3c2[nH]1`, the fold change (FC) in assay [10] was 12.

With `CCCC(CCC)c1nc2c(Nc3ccc(C#CCCCCCCCCCN4CCCC4)cc3)nc3ccccc3c2[nH]1`, the fold change (FC) in [10] turned out to be 4.

`CCCC(CCC)c1nc2c(Nc3ccc(I)cc3)nc3ccccc3c2n1Cc1ccccc1`: the result in [3] was Active. Besides, the fold change (FC) in assay [10] was determined as 2.5.

On to `CCCC(CCC)c1nc2c(Nc3ccc(C#CCCCCCCCCCN4CCCCC4)cc3)nc3ccccc3c2[nH]1`, for which the fold change (FC) in assay [10] was 4.

Regarding `OCCn1c(C2CCCCC2)nc2c(Nc3ccc(Cl)c(Cl)c3)nc3ccccc3c21`, the outcome in [3] was Active.

As to `Clc1ccc(Oc2nc3ccccc3c3[nH]c(C4CCCCC4)nc23)cc1Cl`, the outcome in assay [3] and in [1] was Active.

For the molecule `CCCC(CCC)c1nc2c(Nc3ccc(C#CCN)cc3)nc3ccccc3c2[nH]1`, the outcome in assay [5] was Active.

Turning to `Clc1ccc(Sc2nc3ccccc3c3[nH]c(C4CCCCC4)nc23)cc1Cl`, the outcome in assay [3] and in [1] was Active.

Regarding `CCCC(CCC)c1nc2c(Oc3ccccc3)nc3ccccc3c2[nH]1`, the outcome in assay [3] and in assay [1] was Active.

Take `CCCC(CCC)c1nc2c(Nc3ccc(C#CCCCCCN)cc3)nc3ccccc3c2[nH]1`: the result in [6] and in assay [5] was Active.

In the case of `Clc1ccc(Nc2nc3ccccc3c3nc(C4CCCCC4)sc23)cc1Cl`, the outcome in assay [1] and in assay [4] was Active.

For `CCCC(CCC)c1nc2c(Nc3ccc(C#CCCCN)cc3)nc3ccccc3c2[nH]1`, the outcome in assay [5] was Active.

`CCCC(CCC)c1nc2c(Nc3ccc(C#CCCCCCCCCN=C(N)N)cc3)nc3ccccc3c2[nH]1`: the fold change (FC) in assay [10] turned out to be 9.5.

In the case of `CCCC(CCC)c1nc2c(Nc3ccc(/C=C/C(=O)NCCCCCCCCN)cc3)nc3ccccc3c2[nH]1`, the result in assay [3] and in [1] was Active.

As to `CCCC(CCC)c1nc2c(Nc3ccc(/C=C/CCCCCCCCN)cc3)nc3ccccc3c2[nH]1`, in assay [10], the fold change (FC) was 2.5.

Take `CCCC(CCC)c1nc2c(Nc3ccc(C#CCCCCN)cc3)nc3ccccc3c2[nH]1`: the result in assay [6] and in [5] was Active.
